# From patent US11612605B2, “(+)-azasetron for use in the treatment of ear disorders” (SENSORION, priority 2016, dated 2023)
# Tested on: SSNHL after acoustic trauma
# Assay: SSNHL model: acoustic trauma (120 dB octave band noise), ABR and DPOAE audiometry
# Format: in vivo, male Wistar rats
# Procedure: All experiments were performed using 7-week-old male Wistar rats (CERJ, Le Genest, France) in accordance with the French Ministry of Agriculture regulations and European Community Council Directive no. 86/609/EEC, OJL 358. The rats were fed a standard diet ad libitum and maintained on a 12 hours' light-dark cycle.
# Auditory Brainstem Reponses (ABR) and Distortion Product Otoacoustic Emissions (DPOAE) were recording using a RZ6 Auditory Workstation (Tucker-Davis Technologies, Alachua, Fla., USA) with animals deeply anesthetized using 90 mg/kg ketamine and 10 mg/kg xylazine and placed on a 35° C. recirculating heating pad inside a sound attenuating cubicle (Med Associates Inc., St. Albans, Vt., USA) throughout the experiment.
# For ABR recordings, three stainless steel needle electrodes were placed subdermally over the vertex, the right mastoid and right hind leg of each animal. Tone-pips (5 msec duration presented at a rate of 21/s) at 8, 16 and 24 kHz were delivered to the right ear using a calibrated MF-1 speaker in closed-field configuration (Tucker-Davis Technologies, Alachua, Fla., USA) at attenuating intensity until no reproducible response could be recorded. Close to the ABR threshold, the responses to 1000 acoustic stimuli in 5 dB steps were averaged. Responses were low-pass filtered at 3 kHz.
# DPOAEs were recorded and using ER10B+ Low Noise DPOAE microphone (Etymotic Research, Inc., Elk Grove Village, Ill., USA) with acoustic stimuli delivered by two calibrated MF-1 speakers in closed-field configuration (Tucker-Davis Technologies, Alachua, Fla., USA). DPOAEs were recorded at fixed stimulus levels (L1=L2=70 dB SPL), with an f2/f1 ratio of 1.2. Responses were recorded at 4, 8, 16, 24 and 32 kHz.
# Animals were exposed to 120 dB octave band noise (8-16 kHz) for 2 hours in groups of 4 rats, placed in individual compartments of a custom built circular cage placed on a 30-cm diameter platform rotating at 3 turns/minute (Aqila Innovation, Valbonne, France). The calibrated octave band noise generated by the RZ6 SigGen software was further amplified by a Crown D-75 amplifier in bridge mode (Crown Audio, Elkhart, Ind., USA) and delivered by four Beyma CPI6 compression tweeters (Acustica Beyma S. L., Moncada, Valencia, Spain) positioned 39 cm above the rotating platform, each 10 cm from the platform center.
# The ability of the racemic and two enantiomers of azasetron hydrochloride to reduce SSNHL after acoustic trauma was evaluated in a randomized, vehicle-controlled study with 7 weeks old male Wistar rats. Rats were randomized to receive 4.22 mg/kg of the racemic, two enantiomers of azasetron or vehicle control (physiological saline) by intraperitoneal injection immediately after acoustic trauma, followed by daily dosing for a total of 14 days. Two days prior to acoustic trauma, baseline audiometric readings using auditory brainstem response (ABR) (8, 16, and 24 kHz) were recorded for each animal. Animals were exposed to 120-dB octave-band noise (8-16 kHz) for 2 hours to induce acoustic trauma.
# The ability of the (+)-enantiomer of azasetron hydrochloride to reduce SSNHL after acoustic trauma was evaluated in a randomized, vehicle-controlled study in male Wistar rats, 7 weeks of age. Rats were randomized to receive 5, 10, or 20 mg/kg of the (+)-enantiomer of azasetron hydrochloride or vehicle control (physiological saline) by oral gavage immediately after acoustic trauma, followed by daily dosing for a total of 14 days. Two days prior to acoustic trauma, baseline audiometric readings using auditory brainstem response (ABR) (8, 16, and 24 kHz) and distortion-product otoacoustic emissions (DPOAE) (4, 8, 16, 24, and 32 kHz) were recorded for each animal. Post-trauma audiometry recordings were conducted at 14 days.
# The ability of the racemic azasetron hydrochloride by oral administration to reduce SSNHL after acoustic trauma was also evaluated. […]
# [1] = 10 mg/kg oral gavage daily 14 days after acoustic trauma
# [2] = 10 mg/kg oral gavage daily 14 days, baseline to day 14
# [3] = 20 mg/kg oral gavage daily 14 days, baseline to day 14
compound,measurement,setting,value
"CN1C(=O)COc2c(C(=O)NC3CN4CCC3CC4)cc(Cl)cc21 (racemic) [Racemic azasetron, N-(1-azabicyclo[2.2.2]octan-8-yl)-6-chloro-4-methyl-3-oxo-1,4-benzoxazine-8-carboxamide]",protective effect on ABR thresholds,[1],small tendency towards a protective effect
same,protective effect on DPOAE amplitude loss,[1],small tendency towards a protective effect
CN1C(=O)COc2c(C(=O)N[C@H]3CN4CCC3CC4)cc(Cl)cc21 [(+)-azasetron],"ABR threshold shifts compared with racemic azasetron, (−)-enantiomer and vehicle","4.22 mg/kg intraperitoneal, daily for 14 days after acoustic trauma, 8, 16, 24 kHz",reduced ABR threshold shifts more than racemic azasetron or (−)-enantiomer
same,mean improvement in hearing (ABR),[2],22.3 dB
same,mean reduction of ABR threshold shifts,[2],35.1%
same,mean improvement in hearing (ABR),[3],19.4 dB
same,mean reduction of ABR threshold shifts,[3],30.5%
same,mean reduction of DPOAE amplitude loss,[3],51.2%
same,reduction of hearing loss (average) by ASLHA criteria versus vehicle control,10- and 20-mg/kg oral doses,from moderately severe (56 to 70 dB) to mild/moderate (26 to 40 dB/41 to 55 dB)
